Earlier results, collected in US20100260859A1 (ELAN PHARMA INTERNATIONAL LIMITED, priority 2009, published 2010).

Compound: CN1CCN(C2=Nc3cc(Cl)ccc3Nc3ccccc32)CC1 [Clozapine, 8-chloro-11-(4-methylpiperazin-1-yl)-5H-dibenzo[b,e][1,4]diazepine]
- established intrinsic solubility of clozapine in water: 16 µg/mL
- solubility in water (in words): very slightly soluble in water
